Assay [1] has as its system SDMA signal (PRMT5 inhibition) in HCT116 MTAP-deleted cells. The assay can be described thus: Symmetric di-methyl arginine image-based high content screen assay (SDMA assay), HCT116 MTAP-deleted. The settings on record: SDMA assay; for EC50: Homo sapiens, HCT-116, 72 h, 3 days of treatment, cell line not given, taken as HCT116 MTAP-deleted, read-out: EC50 (SDMA assay); for EC50 selectivity (SDMA assay): taken as HCT116 WT versus MTAP-deleted. Format: cell-based. Summed up:
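Read-out: per-cell mean SDMA immunofluorescence (Alexa Fluor 488 secondary), cells segmented by DAPI on a high-content imager. Compound exposure in HCT116 MTAP-deleted cells lasted until fixation on Day 3; overnight 4° C primary anti-SDMA antibody staining.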

Assay [2] concerns HCT116 MTAP-deleted cells. The assay is described as follows: Cell viability assay (CellTiter-Glo, 7 days), HCT116 MTAP-deleted. The settings on record: Homo sapiens, HCT-116, 168 h.
Method: Control compounds were analyzed in parallel each time for quality control.
In Brief, on Day −1, a serial dilution of stock compounds in DMSO was performed using BioMek liquid handlers and dispensed using Echo acoustic dispenser into 384 well plates. Both tool compounds and sample compounds were spotted in the same plate for a dose response of PRMT5 inhibitors. Compound plates were stored as frozen until the cells were ready for seeding.
On Day 0, 100 HCT WT or HCT116 MTAP-deleted cells were seeded in compound-containing 384 well plates (50 μl per well) in RPMI 1640 media supplemented with 10% heat inactivated fetal bovine serum, Glutamax and penicillin streptomycin using EL460 liquid dispenser 5 μl cassette (BioTek, part no. 7170011). After equilibrating the plate in room temperature, the cells were incubated for 7 days inside the sealed incubator set at 37 °C with 90% humidity and 5% CO2.
On Day 7, the viability of cells was measured using a CTG assay kit (CellTitre-Glo; Promega cat no. G7573). Shortly, 40 μl per well of luminescent cell viability assay reagent were dispensed using EL460 liquid dispenser 5 μl cassette. CTG luminescence signal was measured using an EnVision plate reader (PerkinElmer) in accordance with manufacturer's instruction. The CC50 values for each compound after 7 days of treatment were calculated using 4 parameter non-linear logistical curve fit.

By EC50 is commonly meant the midpoint of the concentration-response curve. As usually defined, the CC50 is the concentration giving 50% cytotoxicity. The low end stands for greater toxicity to the cells, the high end for lower toxicity to the cells. Turning to `Cn1ncc2c(N)nc3ccc(C(=O)N(Cc4cn5cc(Cl)ccc5n4)N4CCCC4=O)cc3c21` [Example 123, 4-Amino-N-[(6-chloroimidazo[1,2-a]pyridin-2-yl)methyl]-1-methyl-N-(2-oxopyrrolidin-1-yl)pyrazolo[4,3-c]quinoline-8-carboxamide], in assay [1], the EC50 is < 1 nM and the “EC50 selectivity (SDMA assay)” value turned out to be 39. For the same compound, in assay [2], the CC50 is < 100 nM.
In the same order, the values of `CN1CCN(N(Cc2cn3ccc(Cl)cc3n2)C(=O)c2ccc3nc(N)c4cnn(C)c4c3c2)C1=O` [Example 125, 4-Amino-N-[(7-chloroimidazo[1,2-a]pyridin-2-yl)methyl]-1-methyl-N-(3-methyl-2-oxo-imidazolidin-1-yl)pyrazolo[4,3-c]quinoline-8-carboxamide] are 1 to 5 nM, 60 and < 100 nM.
On to `CN(C(=O)N1CCC1)N(Cc1ccc(C(F)(F)F)cn1)C(=O)c1ccc2nc(N)c3cnn(C)c3c2c1` [Example 126, 4-amino-N′-(azetidine-1-carbonyl)-N′,1-dimethyl-N-((5-(trifluoromethyl)pyridin-2-yl)methyl)-1H-pyrazolo[4,3-c]quinoline-8-carbohydrazide], for which, in assay [1], the 50% effective concentration (EC50) was < 1 nM and the “EC50 selectivity (SDMA assay)” value came out at 45. For the same compound, the CC50 in assay [2] was < 100 nM.
On to `CN(C(=O)N1CC2CC2C1)N(Cc1ccc(C(F)(F)F)cn1)C(=O)c1ccc2nc(N)c3cnn(C)c3c2c1` (stereo not drawn) [Example 127, 4-amino-N′-(3-azabicyclo[3.1.0]hexane-3-carbonyl)-N′,1-dimethyl-N-((5-(trifluoromethyl)pyridin-2-yl)methyl)-1H-pyrazolo[4,3-c]quinoline-8-carbohydrazide], for which, in assay [1], the EC50 was in the range of 1 to 5 nM and the “EC50 selectivity (SDMA assay)” value is given as 228. Further, the CC50 in assay [2] was < 100 nM.
For the compound `CN(C(=O)N1CC2CC1C2)N(Cc1ccc(C(F)(F)F)cn1)C(=O)c1ccc2nc(N)c3cnn(C)c3c2c1` [Example 128, 4-amino-N′-(2-azabicyclo[2.1.1]hexane-2-carbonyl)-N′,1-dimethyl-N-((5-(trifluoromethyl)pyridin-2-yl)methyl)-1H-pyrazolo[4,3-c]quinoline-8-carbohydrazide], in assay [1], the EC50 is < 1 nM and the “EC50 selectivity (SDMA assay)” value was 131. Besides, the CC50 in assay [2] is < 100 nM.
Consider `CN(c1ncccn1)N(Cc1cn2cc(Cl)ccc2n1)C(=O)c1ccc2nc(N)c3cnn(C)c3c2c1` [Example 129, 4-amino-N-[(6-chloroimidazo[1,2-a]pyridin-2-yl)methyl]-N′,1-dimethyl-N′-pyrimidin-2-yl-pyrazolo[4,3-c]quinoline-8-carbohydrazide], for which, in assay [1], the EC50 was < 1 nM and the “EC50 selectivity (SDMA assay)” value came out at 11. Besides, the CC50 in assay [2] is < 100 nM.
Take `Cn1cc(-c2ccc(CN(C(=O)c3ccc4nc(N)c5cnn(C)c5c4c3)N3CCCCC3=O)nc2)cn1` [Example 130, 4-amino-1-methyl-N-((5-(1-methyl-1H-pyrazol-4-yl)pyridin-2-yl)methyl)-N-(2-oxopiperidin-1-yl)-1H-pyrazolo[4,3-c]quinoline-8-carboxamide]: in assay [1], the EC50 is 1 to 5 nM and the “EC50 selectivity (SDMA assay)” value was 34. The CC50 in assay [2] was < 100 nM.
In the same order, the values of `Nc1nc2cc(F)c(C(=O)N3CCCCN3c3ccc(C(F)(F)F)cn3)cc2c2cscc12` [Example 131, (4-amino-7-fluoro-thieno[3,4-c]quinolin-8-yl)-[2-[5-(trifluoromethyl)-2-pyridyl]hexahydropyridazin-1-yl]methanone] are > 5 nM, 279 and > 1000 nM.
With `Nc1nc2cc(F)c(C(=O)N3CCCN3c3ccc(C(F)(F)F)cn3)cc2c2cscc12` [Example 132, (4-amino-7-fluoro-thieno[3,4-c]quinolin-8-yl)-[2-[5-(trifluoromethyl)-2-pyridyl]pyrazolidin-1-yl]methanone], in assay [1], the EC50 is > 5 nM and the “EC50 selectivity (SDMA assay)” value is reported as 3193. In assay [2], the CC50 is > 1000 nM.
As to `Cn1ncc2c(N)nc3ccc(C(=O)N(Cc4ccc(C(F)(F)F)cn4)N4CCOC4=O)cc3c21` [Example 133, 4-amino-1-methyl-N-(2-oxooxazolidin-3-yl)-N-((5-(trifluoromethyl)pyridin-2-yl)methyl)-1H-pyrazolo[4,3-c]quinoline-8-carboxamide], in assay [1], the EC50 is < 1 nM and the “EC50 selectivity (SDMA assay)” value came to 92. Moreover, the CC50 in assay [2] was < 100 nM.
In the same order, the values of `CN1CCN(N(Cc2ccc(C(F)(F)F)cn2)C(=O)c2cc3c(cc2F)nc(N)c2cnn(C)c23)C1=O` [Example 134, 4-amino-7-fluoro-1-methyl-N-(3-methyl-2-oxoimidazolidin-1-yl)-N-((5-(trifluoromethyl)pyridin-2-yl)methyl)-1H-pyrazolo[4,3-c]quinoline-8-carboxamide] are 1 to 5 nM, 18 and < 100 nM.
Take `Cn1ncc2c(N)nc3ccc(C(=O)N(Cc4nc(C(F)(F)F)cs4)N4CCCOC4=O)cc3c21` [Example 135, 4-amino-1-methyl-N-(2-oxo-1,3-oxazinan-3-yl)-N-((4-(trifluoromethyl)thiazol-2-yl)methyl)-1H-pyrazolo[4,3-c]quinoline-8-carboxamide]: in assay [1], the EC50 lay in the range of 1 to 5 nM and the “EC50 selectivity (SDMA assay)” value was 495. Also, in assay [2], the CC50 lay in the range of 100 to 1000 nM.
In the case of `Cn1ncc2c(N)nc3ccc(C(=O)N(Cc4csc(C(F)(F)F)n4)N4CCCOC4=O)cc3c21` [Example 136, 4-amino-1-methyl-N-(2-oxo-1,3-oxazinan-3-yl)-N-((2-(trifluoromethyl)thiazol-4-yl)methyl)-1H-pyrazolo[4,3-c]quinoline-8-carboxamide], in assay [1], the EC50 is 1 to 5 nM and the “EC50 selectivity (SDMA assay)” value amounted to 724. For the same compound, the CC50 in assay [2] was in the range of 100 to 1000 nM.
Turning to `CN(C(=O)OC(C)(C)C)N(Cc1ccc(C(F)(F)F)cn1)C(=O)c1ccc2nc(N)c3cnn(C)c3c2c1` [Example 137, tert-butyl N-[(4-amino-1-methyl-pyrazolo[4,3-c]quinoline-8-carbonyl)-[[5-(trifluoromethyl)-2-pyridyl]methyl]amino]-N-methyl-carbamate], in assay [1], the EC50 was in the range of 1 to 5 nM and the “EC50 selectivity (SDMA assay)” value was 159. The CC50 in assay [2] is < 100 nM.
As for `Cn1ncc2c(N)nc3ccc(C(=O)N(Cc4ccc(C(F)(F)F)cn4)N4CCS(=O)(=O)CC4)cc3c21` [Example 138, 4-amino-N-(1,1-dioxo-1,4-thiazinan-4-yl)-1-methyl-N-[[5-(trifluoromethyl)-2-pyridyl]methyl]pyrazolo[4,3-c]quinoline-8-carboxamide], in assay [1], the EC50 was > 5 nM and the “EC50 selectivity (SDMA assay)” value is reported as 174. The CC50 in assay [2] is > 1000 nM.
As to `Cn1ncc2c(N)nc3ccc(C(=O)N(Cc4cn5ccccc5n4)N4Cc5ccccc5C4=O)cc3c21` [Example 139, 4-amino-N-(imidazo[1,2-a]pyridin-2-ylmethyl)-1-methyl-N-(1-oxoisoindolin-2-yl)pyrazolo[4,3-c]quinoline-8-carboxamide], in assay [1], the EC50 is > 5 nM and the “EC50 selectivity (SDMA assay)” value came out at 20. The CC50 in assay [2] is < 100 nM.
